We go through 1 compound from patent publication US20220193072A1, “METHODS OF TREATING BREAST CANCER WITH TETRAHYDRONAPHTHALENE DERIVATIVES AS ESTROGEN RECEPTOR DEGRADER” (Arvinas Operations, Inc., priority 2020, published 2022).

The test system of one experiment is MCF7 xenograft. Nature of the experiment: MCF7 orthotopic xenograft, combination with CDK4/6 inhibitor. It is filed as in vivo, NOD/SCID mice.
The target in a further experiment is T1, ER (Homo sapiens, UniProt P03372).
T1 sequence (P03372 1-595): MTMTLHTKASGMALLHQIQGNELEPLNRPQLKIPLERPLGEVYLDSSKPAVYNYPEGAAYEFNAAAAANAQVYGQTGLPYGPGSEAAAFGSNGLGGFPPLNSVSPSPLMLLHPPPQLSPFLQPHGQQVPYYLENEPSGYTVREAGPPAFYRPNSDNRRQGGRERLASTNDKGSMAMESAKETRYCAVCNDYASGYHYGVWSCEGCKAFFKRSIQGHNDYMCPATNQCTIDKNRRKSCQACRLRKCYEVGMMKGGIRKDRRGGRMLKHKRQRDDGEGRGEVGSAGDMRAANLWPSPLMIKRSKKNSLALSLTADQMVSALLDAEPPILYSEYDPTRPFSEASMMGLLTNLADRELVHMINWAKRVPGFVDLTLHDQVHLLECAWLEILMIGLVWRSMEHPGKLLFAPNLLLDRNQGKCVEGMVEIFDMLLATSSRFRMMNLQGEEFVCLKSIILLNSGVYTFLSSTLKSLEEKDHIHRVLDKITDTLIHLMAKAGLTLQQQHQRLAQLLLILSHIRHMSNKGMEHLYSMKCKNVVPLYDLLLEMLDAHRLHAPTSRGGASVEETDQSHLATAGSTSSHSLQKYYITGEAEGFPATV
The conditions noted are these: after 6 months of fulvestrant treatment; cited from earlier work.

The target of the next experiment is T2, ERα (ESR1 Y537S) (Homo sapiens, UniProt P03372, Y537S).
T2 construct: a hormone-independent patient-derived xenograft model; from tissue; host or cells: ESR1 (Y537S) patient-derived xenograft tumour grown in mice
T2 sequence (P03372 1-595 Y537S): T1 sequence (P03372 1-595) with Y537S
Nature of the experiment: Tumor ERα levels in ESR1 (Y537S) PDX model. It is filed as in vivo. The settings on record: ESR1 (Y537S) PDX, fulvestrant 200 mg/kg SC twice/week, 2 weeks.

For experiment [1] the following is noted: cited from earlier work; for progression free survival (PFS): minimum follow-up 18 months.
A further experiment has as its target T3, ERα (Homo sapiens, UniProt P03372).
T3 construct: robustly degrades ER in ER-positive breast cancer cell lines; endogenous in cells; host or cells: MCF7, T47D (cell culture); MCF7 and tamoxifen-resistant MCF7 xenograft tumours in mice
T3 sequence (P03372 1-595): T1 sequence (P03372 1-595)
Nature of the experiment: In vivo ERα degradation in MCF7 xenograft tumors (immunoblot). Further details: species or system NOD/SCID mice. The conditions noted are these: MCF7/estradiol model, fulvestrant 200 mg/kg. As to the method: Approximately 18 hours after the final administration, mice were sacrificed, and MCF7 xenografts were harvested and lysed to determine ER levels by immunoblotting. […] Diet was supplemented with peanut butter to help maintain body weights.
Species: NOD/SCID female mice (Charles River, 6-7 weeks old upon arrival).
Animal handling: Axial mammary fat pad implantation of 5×10^6 MCF7 cells/200 per mouse (17β-estradiol 0.36 mg 90-day pellet implanted day before).
Dosing: Oral (gavage), once a day (QD) for 3 days (QD×3). Vehicle: 2% Tween80/PEG400 (‘PEG/Tween’).
Sampling: Terminal sacrifice was ˜18 hrs after last dose; tumors were harvested, divided and flash frozen. ERα levels were determined by immunoblotting.
Cell Lysis: flash frozen tumors were removed from −80° C. storage and placed on dry ice. RIPA lysis buffer and Halt protease inhibitors were used at 400 μl per tumor sample. A steel ball (5 mm) was placed in each sample for tissue disruption. Samples were lysed with TissueLyzer at 24 Hz for 4 minutes. The homogenization was stopped half way through the process and the block flipped over for the duration of the process. Steel beads were pulled out of the tubes and the lysates were spun down at 21,000×g for 15 minutes at 4° C. Lysates were then measured for total protein concentration by BCA (per manufacturer's protocol).
Detection of proteins by immunoblot: lysates were mixed with sample buffer and reducing agent (per manufacturer's protocol). Samples were denatured at 95° C. for 5 minutes in thermal cycler. Samples were cooled and spun down (5000×g; 1 minute) prior to loading on gel. Gels were loaded with 10 μg total protein per lane. Samples were loaded on 4-15% Criterion Tris/Glycine gels and run for 25 minutes at 250 constant volts in 1×Tris/Glycine/SDS buffer. Protein was transferred from gels to nitrocellulose with Bio-Rad Turbo on default setting. All blots were rinsed with distilled water and blocked for 1 hour at RT in 5% BSA in TBS-T (TBS with 0.1% Tween) on rocker. The blots were cut so that beta-actin and ERα can be detected from the same lane/sample.
Blots were incubated with primary antibody in 5% BSA in TBST (0.1%) overnight at 4° C. on rocker:
Blot was washed with TBST (0.1%) three times for 5 minutes on rocker at RT. Secondary antibody was added, and blots incubated at RT on rocker for 1 hour (1:18,000 anti-rabbit-HRP in TBS-T). Blots were washed 3 times in TBST (0.1%) for 5 minutes at RT on the rocker. Signal was developed with Pierce WestFemto maximum sensitivity substrate for 5 minutes and blots imaged on BioRad ChemiDoc.
Sampling: Tumors were measured twice weekly. Terminal sacrifice was ˜18 hr after last dose; tumors were harvested, divided, and flash frozen. ERα levels were determined by immunoblotting.
At study termination, the tumors were removed from the mice, and ERα levels were determined by immunoblotting the tumor homogenates.
Sampling: tumors were measured twice weekly. Terminal sacrifice was ˜18 hr after last dose; tumors were harvested, divided, and flash frozen. ERα levels were determined by immunoblotting.

For another experiment, the system named is ESR1 (Y537S) PDX. The experiment in a line: ESR1 (Y537S) PDX model tumor growth inhibition. The settings on record: ESR1 (Y537S) PDX, fulvestrant 200 mg/kg SC twice/week, 2 weeks. It is filed as in vivo.

Where a chain is given by its changes, count along the chain named. Like-named read-outs stand apart in the source and are kept apart here.

`C[C@]12CC[C@@H]3c4ccc(O)cc4C[C@@H](CCCCCCCCC[S+]([O-])CCCC(F)(F)C(F)(F)F)[C@H]3[C@@H]1CC[C@@H]2O` (stereo partly shown) [Fulvestrant]: the “Day 28 Tumor volume (mean ± SD)” value in the experiment on MCF7 xenograft (fulvestrant 200 mg/kg SC) was 489 ± 154 mm^3. Also, the “TGI (% vehicle)” value in the experiment on MCF7 xenograft (fulvestrant 200 mg/kg SC) came to 46 % vehicle. Moreover, the “tumor growth inhibition (TGI)” value with MCF7 xenograft (single agent 200 mg/kg subcutaneous, twice/week for 2 weeks) is listed as 46%; with ESR1 (Y537S) PDX, 62%. On ER, the “ER baseline levels remaining” value is recorded as “up to 50%”. The “reduction of tumor ERα levels” value on ERα (ESR1 Y537S) came to 63%. Besides, the “progression free survival (PFS)” value in experiment [1] (fulvestrant 250 mg) was 5.4 months; in experiment [1] (fulvestrant 500 mg) it was 6.5 months. Further, the response rate is on record as 14.6% in experiment [1] (fulvestrant 250 mg, CI 10.5-19.4%) and 13.8% in experiment [1] (fulvestrant 500 mg, 95% CI 9.7-18.8%). For the same compound, the results for the “overall survival (OS)” value in experiment [1] (fulvestrant 250 mg) and in experiment [1] (fulvestrant 500 mg) were 22.8 months and 25.1 months, respectively. Also, at ERα, the “% ERα ↓” value is “None”.
